Data on 22 compounds can be found in ChEMBL document CHEMBL1914387, “Combining symmetry elements results in potent naphthyridinone (NTD) HIV-1 integrase inhibitors” (Bioorg Med Chem Lett, 2011).

Data set [1] addresses Human immunodeficiency virus type 1 integrase (Human immunodeficiency virus 1, UniProt Q7ZJM1). Put plainly: Inhibition of HIV1 integrase strand transfer by biochemical assay.
In data set [2] the test system is Human immunodeficiency virus 1. As to the kind of experiment: Antiviral activity against pseudo HIV1 infected in human 293T cells after 2 days by luciferase reporter gene assay. It counts as functional, organism-based. The following applies: Human immunodeficiency virus 1, HEK-293T, 48 h.
In data set [3] the test system is Human immunodeficiency virus 1. As to the kind of experiment: Antiviral activity against pseudo HIV1 infected in human 293T cells after 2 days by luciferase reporter gene assay in presence of human serum albumin. It counts as functional, organism-based. The settings on record: Human immunodeficiency virus 1, HEK-293T, 48 h.
A short description of data set [4]: Therapeutic index, ratio of CC50 for human 293T cells to EC50 for HIV1. The following applies: read-out: Ratio CC50/EC50. In kind it is cell-based.
Data set [5] relates to Human immunodeficiency virus 1. As to the kind of experiment: Ratio of EC50 for pseudo HIV1 infected in human 293T cells in presence of human serum albumin to EC50 for pseudo HIV1 infected in human 293T cells. It counts as functional.
In data set [6] the test system is Human immunodeficiency virus 1. Put plainly: Antiviral activity against HIV1 3B infected in human MT4 cells assessed as inhibition of viral replication after 4-5 days by bioluminescence assay. The following applies: Human immunodeficiency virus 1, 3B. In kind it is functional, organism-based.
Data set [7] in a line: Selectivity index, ratio of CC50 for human MT4 cells to EC50 for HIV13B. In kind it is toxicity, cell-based. The settings on record: read-out: Ratio CC50/EC50.
In data set [8] the test system is Human immunodeficiency virus 1. As to the kind of experiment: Antiviral activity against HIV1 Ba-L infected in human PBMC cells assessed as inhibition of viral replication after 7 days by [methyl-3H]dTTP incorporation assay. It counts as functional, organism-based. The settings on record: Human immunodeficiency virus 1, Ba-L, 168 h.

Human immunodeficiency virus type 1 integrase, sequence (Q7ZJM1 whole entry): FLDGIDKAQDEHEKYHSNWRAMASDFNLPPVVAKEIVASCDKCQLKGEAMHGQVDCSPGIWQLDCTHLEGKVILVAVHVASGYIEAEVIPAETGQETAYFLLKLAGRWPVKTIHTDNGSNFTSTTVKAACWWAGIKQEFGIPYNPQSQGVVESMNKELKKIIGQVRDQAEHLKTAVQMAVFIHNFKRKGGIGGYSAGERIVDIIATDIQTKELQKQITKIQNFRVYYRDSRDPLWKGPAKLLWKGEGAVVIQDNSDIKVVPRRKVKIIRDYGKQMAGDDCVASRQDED

The term IC50 denotes the point on the concentration scale where inhibition reaches its midpoint. A high value points to a need for much substance. A word on the EC50: it is the concentration giving half of the maximal effect. Regarding `COc1ccc(CNC(=O)c2c(O)c3ncc(Cc4ccc(F)cc4)cc3[nH]c2=O)cc1`, the IC50 in data set [1] was 7 nM. Moreover, the EC50 in data set [2] is 7 nM; in data set [3], 440 nM. In data set [4], the selectivity ratio was found to be 1730.
For the compound `O=C(NCc1ccc(F)cc1)c1c(O)c2ncccc2n(C2CCCC2)c1=O`, half-maximal inhibition in data set [1] (IC50) was put at 6 nM. Further, the concentration giving a half-maximal response (EC50) in data set [2] is 110 nM; in data set [3], 1540 nM. Further, the selectivity ratio in data set [4] was determined as 79. The “Ratio EC50” value in data set [5] is reported as 14.
With `CN(C)C(=O)Cn1c(=O)c(C(=O)NCc2ccc(F)cc2)c(O)c2ncc(Cc3ccc(F)cc3)cc21`, the concentration for half-maximal inhibition (IC50) in data set [1] was determined as 4 nM. Moreover, the EC50 in data set [2] was found to be 10 nM; in data set [3], 130 nM. Moreover, the selectivity ratio in data set [4] amounted to 1150. In data set [5], the “Ratio EC50” value is recorded as 10.
In data set [1], `Nc1ccc(Cn2c(=O)c(C(=O)NCc3ccc(F)cc3)c(O)c3ncc(Cc4ccccc4)cc32)cc1` showed an IC50 of 28 nM. Further, the values for the EC50 in data set [2] and in data set [3] were 12 nM and 140 nM, respectively. Moreover, in data set [4], the selectivity ratio was found to be 1130. The “Ratio EC50” value in data set [5] is given as 12.
As to `Cn1c(=O)c(C(=O)NCc2ccc(F)cc2)c(O)c2ncc(Cc3ccc(F)cc3)cc21`, in data set [1], the 50% inhibitory concentration (IC50) worked out at 17 nM. In addition, the EC50 in data set [2] is 8 nM; in data set [3], 530 nM; in data set [6] it was 66 nM. Further, the selectivity ratio in data set [4] was determined as 1710; in data set [7], 453.
In the case of `O=C(NCc1ccc(F)cc1)c1c(O)c2ncc(Cc3ccc(F)cc3)cc2n(CCN2CCCC2=O)c1=O`, in data set [1], the IC50 is 14 nM. Moreover, the EC50 in data set [2] was determined as 3 nM; in data set [3] it was 140 nM; in data set [6] it was 20 nM; in data set [8], 11 nM. Further, the selectivity ratio in data set [4] is 5600; in data set [7], above 400.
As to `O=C(NCc1ccc(F)cc1)c1c(O)c2ncccc2[nH]c1=O`, the midpoint of inhibition in data set [1], the IC50, lay at 13 nM. This compound showed an EC50 in data set [2] of 110 nM. In addition, the selectivity ratio in data set [4] was 87.
In data set [1], `O=C(NCc1ccc(F)cc1)c1c(O)c2ncc(Cc3ccccc3)cc2n(CCN2CCCC2=O)c1=O` returned an IC50 of 32 nM. Besides, the EC50 in data set [2] came out at 8 nM; in data set [3] it was 290 nM. In data set [4], the selectivity ratio was 1770.
Compound `O=C(NCc1ccc(F)cc1C(F)(F)F)c1c(O)c2ncc(Cc3ccccc3)cc2[nH]c1=O` gave an IC50 in data set [1] of 32 nM. Further, the EC50 in data set [2] came out at 39 nM; in data set [3] it was 480 nM. Besides, the selectivity ratio in data set [4] was determined as 90.
`O=C(NCc1ccc(F)cc1)c1c(O)c2ncc(Cc3ccc(F)cc3)cc2n(CC(=O)N2CCOCC2)c1=O` came in with an IC50 in data set [1] of 8 nM. In addition, the EC50 in data set [2] is 3 nM; in data set [3] it was 45 nM; in data set [6], 15 nM. Besides, the selectivity ratio in data set [4] is 2880; in data set [7] it was 347.
On to `O=C(NCc1ccc(F)cc1)c1c(O)c2ncc(Cc3ccccc3)cc2n(CC2CC2)c1=O`, for which half-maximal inhibition in data set [1] (IC50) required 34 nM. Further, the values for the EC50 in data set [2] and in data set [3] were 30 nM and 730 nM, respectively. For the same compound, the selectivity ratio in data set [4] came to 465.
The compound `COc1cccc(CNC(=O)c2c(O)c3ncc(Cc4ccc(F)cc4)cc3[nH]c2=O)c1` displayed an IC50 in data set [1] of 10 nM. In addition, the EC50 was 13 nM in data set [2] and 460 nM in data set [3]. The selectivity ratio in data set [4] was found to be 1050.
Regarding `COc1ccc(CNC(=O)c2c(O)c3ncc(Cc4ccc(F)cc4)cc3[nH]c2=O)cc1OC`, the midpoint of inhibition in data set [1], the IC50, lay at 8 nM. In addition, the EC50 in data set [2] came out at 21 nM; in data set [3], 1100 nM. Also, in data set [4], the selectivity ratio came to 680.
As to `CC(C)n1c(=O)c(C(=O)NCc2ccc(F)cc2)c(O)c2ncccc21`, half-maximal inhibition in data set [1] (IC50) was put at 1 nM. For the same compound, in data set [2], the response was half-maximal at 400 nM (EC50). For the same compound, the selectivity ratio in data set [4] stood at 30.
Compound `CC(NC(=O)c1c(O)c2ncc(Cc3ccccc3)cc2[nH]c1=O)c1ccccc1` (centres undefined) registered a half-maximal inhibitory concentration (IC50) in data set [1] of 20 nM. For the same compound, the EC50 in data set [2] was 65 nM; in data set [3] it was 360 nM. Besides, the selectivity ratio in data set [4] was 79.
In data set [1], `O=C(NCc1ccc(F)cc1)c1c(O)c2ncc(Cc3ccc(F)cc3)cc2[nH]c1=O` registered an IC50 of 6 nM. The EC50 in data set [2] was 8 nM; in data set [3], 280 nM. In addition, the selectivity ratio in data set [4] is 1730.
Regarding `O=C(NCc1ccc(F)cc1Cl)c1c(O)c2ncc(Cc3ccccc3)cc2[nH]c1=O`, the IC50 in data set [1] was determined as 35 nM. Also, in data set [2], a half-maximal effect (EC50) was put at 120 nM. In addition, the selectivity ratio in data set [4] is 117.
`O=C(NCc1ccc(F)cc1)c1c(O)c2ncc(Cc3ccc(F)cc3)cc2n(CC(=O)N2CCCCC2)c1=O`: in data set [1], the IC50 was determined as 19 nM. For the same compound, the results for the concentration giving a half-maximal response (EC50) in data set [2] and in data set [3] were 26 nM and 220 nM, respectively. Further, the selectivity ratio in data set [4] came to 171. Further, the “Ratio EC50” value in data set [5] came out at 10.
The compound `CCCn1c(=O)c(C(=O)NCc2ccc(F)cc2)c(O)c2ncc(Cc3ccccc3)cc21` came in with a half-maximal inhibitory concentration (IC50) in data set [1] of 18 nM. Further, the EC50 in data set [2] came out at 70 nM; in data set [3], 640 nM. Further, the selectivity ratio in data set [4] is 99.
`CS(=O)(=O)c1ccc(Cn2c(=O)c(C(=O)NCc3ccc(F)cc3)c(O)c3ncc(Cc4ccccc4)cc32)cc1` had an IC50 in data set [1] of 28 nM. The EC50 amounted to 9 nM in data set [2] and 230 nM in data set [3]. Further, the selectivity ratio in data set [4] stood at 1430. The “Ratio EC50” value in data set [5] turned out to be 25.
In the case of `O=C(NCc1ccc(F)cc1)c1c(O)c2ncc(Cc3ccccc3)cc2[nH]c1=O`, inhibition in data set [1] was half-maximal at 13 nM (IC50). The EC50 was 19 nM in data set [2], 430 nM in data set [3] and 37 nM in data set [6]. Further, the selectivity ratio turned out to be 711 in data set [4] and 108 in data set [7].
As to `COc1ccccc1CNC(=O)c1c(O)c2ncc(Cc3ccc(F)cc3)cc2[nH]c1=O`, the midpoint of inhibition in data set [1], the IC50, lay at 6 nM. Also, the EC50 amounted to 9 nM in data set [2] and 330 nM in data set [3]. Further, the selectivity ratio in data set [4] was found to be 1540.
